Results: patent US8735609B2, “Bryostatin analogues, synthetic methods and uses” (The Board of Trustees of the Leland Stanford Junior …, priority 2007, dated 2014)
Where two headings read alike, the source gives them in different places.

Assays:
[1] = molecular target: PKC purified from the rat brain; test: PKC binding assay; settings: for Ki: competitive inhibition of [3H]-PDBu binding, read-out: PKC Binding constant
Procedure: Filters (Whatman GF-B, 21 mm dia.) are soaked for 1 hour in a solution containing deionized water (97 mL), and 10% polyethyleneamine (3 mL). An assay buffer solution is prepared by the combining of TRIS (1M, pH 7.4, 1 mL), KCl (1M, 2 μL), CaCl2 (0.1M, 30 μL), bovine serum albumin (40 mg), and diluting to 20 mL with deionized water and stored on ice. Phosphatidyl serine vesicles are prepared by the addition of phosphatidyl serine (10 mg/mL in chloroform, 0.4 mL) to a glass test tube followed by removal of the chloroform under a stream of nitrogen (5 min). To this viscous liquid is added a portion of the prepared assay buffer (4 mL) and the resulting mixture is then transferred to a plastic tube. This tube is then sonicated (Branson Sonifier 250, power=6, 40% duty cycle) four times for 30 sec. with a 30 sec. rest in-between sonications. The resulting solution is stored over ice. PKC is prepared by the addition of cooled assay buffer (10 mL) to PKC (25 mL) purified from the rat brain by the method of Mochly-Rosen et al. (J. Biol. Chem. 1987, 262, 2291) and then stored on ice. Stock solutions of compounds are diluted with absolute ethanol in glass in serial fashion.
Each plastic assay incubation tube is made to contain prepared phosphatidyl serine vesicles (60 μL), prepared PKC solution (200 μL) and analog ([…] plus EtOH (20-0 μL) for a total volume of 20 μL). Lastly, tritiated phorbol dibutryate ([3H]-PDBu) (30 nM, 20 μL) is added to each tube. The assay is carried out using 7-10 analog concentrations, each in triplicate. Non-specific binding is measured in 1-3 tubes by the substitution of phorbol myristate acetate (PMA) (1 mM, 5 μL) and EtOH (15 μL) for the analog/EtOH combination. The tubes are incubated at 37° C. for 90 min. and then put on ice for 5 min. Each tube is then filtered separately through a pre-soaked filter disc. The filter is subsequently rinsed with cold 20 mM TRIS buffer (5 mL) dropwise. The filters are then put in separate scintillation vials and Universol® scintillation fluid is added (3 mL). The filters are immediately counted in a scintillation counter (Beckman LS 6000SC). Counts per minute are averaged among three trials at each concentration. The data is then plotted using a least square fit algorithm with the Macintosh version of Kaleidagraph® (Abelbeck Software) and an IC50 (defined as the concentration of analog required to displace half of the specific PDBu binding to PKC) is calculated. The IC50 then allows determination of the Ki for the analog from the equation: Ki=IC50/(1+[PDBu])/Kd of PDBu).

PKCδ-C1B = molecular target: T1, PKCδ-C1B (Mus musculus, UniProt P28867); test: PKCδ-C1B assay; type: binding
T1 construct: made in house
Procedure: Phosphatidyl serine vesicles are prepared by the addition of phosphatidyl serine (10 mg/mL in chloroform, 0.4 mL) to a glass test tube followed by removal of the chloroform under a stream of nitrogen (5 min). […] The resulting solution is stored over ice. […] Stock solutions of compounds are diluted with absolute ethanol in glass in serial fashion. […] The tubes are incubated at 37° C. for 90 min. and then put on ice for 5 min. Each tube is then filtered separately through a pre-soaked filter disc. […] The filter is subsequently rinsed with cold 20 mM TRIS buffer (5 mL) dropwise. […] The filters are immediately counted in a scintillation counter (Beckman LS 6000SC). Counts per minute are averaged among three trials at each concentration.

P388 cell line = test: P388 murine lymphocytic leukemia cell assay; type: cell-based; settings: Mus musculus, P388, 120 h, read-out: P388 Assay ED50
Procedure: Cells from a P388 cell line (CellGate, Inc., Sunnyvale, Calif.) are grown in RPMI 1640 cell medium containing fetal calf serum (10%), L-glutamine, penicillin, streptomycin and are split twice weekly. All compounds are first diluted with DMSO. Later serial dilutions are done with a phosphate buffer solution (HYQ DPBS modified phosphate buffered saline). All dilutions are done in glass vials and the final DMSO concentration is always below 0.5% by volume. Final two-fold dilutions are done in a 96 well plate using cell media so that each well contains 50 μL. All compounds are assayed in quadruplicate over 12 concentrations. Cell concentration is measured using a hemacytometer and the final cell concentration is adjusted to 1×10^4 cells/mL with cell medium. The resulting solution of cells (50 μL) is then added to each well and the plates are incubated for 5 days in a 37° C., 5% CO2, humidified incubator (Sanyo CO2 incubator). MTT solution (3-[4,5-dimethylthiazol-2-yl]-2,5-diphenyltetrazolium bromide, 10 μL) is then added to each well and the plates are re-incubated under identical conditions for 2 h. To each well is then added acidified isopropanol (150 μL of i-PrOH solution containing 0.05 N HCl) and mixed thoroughly. The plates are then scanned at 595 nm and the absorbances are read (Wallac Victor 1420 Multilabel Counter). The resulting data is then analyzed to determine an ED50 value using the Prism software package (GraphPad).

[2] = molecular target: T2, PKCε (PKC-GFP fusion protein) (Homo sapiens, UniProt Q02156); test: PKC translocation assay, PKCε; type: cell-based, Rat; settings: RBL cells, 200 nM, confocal microscopy
T2 construct: expressed in transfected cells; host or cells: Rat basophilic leukemia 2H3 (RBL) cells
Procedure: (§1) Functional activity of analogs were addressed in a PKC translocation assay. […] This translocation can be observed and measured in real time with confocal microscopy using the fusion protein PKC-GFP (green fluorescent protein) as a reporter. Translocation assays were performed on the novel PKC isozymes δ and ε and on the conventional isozyme PKCβ1.
(§2) Rat basophilic leukemia 2H3 (RBL) cells were cultured in Dulbecco's Modified Eagle Medium (DMEM) (Invitrogen Life Technologies, Gibco) containing 20% fetal calf serum with 50 units/ml penicillin, […] and 4 mM glutamine (Gibco). Cells were maintained at 37° C. in an atmosphere of 10% CO2. Two hours prior to transfection, cells were plated onto sterile glass coverslips. […]
(§3) Fluorescence images were obtained using the 488 nm excitation line of a laser scanning confocal microscope (Pascal, Zeiss) and emission was collected through a 505-550 nm band pass filter. […]
(§4) Images were exported as 12 bit files and analyzed using Metamorph data analysis software (Universal Imaging). To monitor the translocation of PKCδ-GFP, a small region of interest was selected in the cytosol of each cell and fluorescence intensity values graphed against time following background subtraction and normalization. […]

[3] = molecular target: T3, PKCβI (PKC-GFP fusion protein) (Homo sapiens, UniProt P05771); test: PKC translocation assay, PKCβI; type: cell-based, Rat
T3 construct: expressed in transfected cells; host or cells: Rat basophilic leukemia 2H3 (RBL) cells
Procedure: as §1, §2, §3, §4

PKCδ-GFP fusion protein = molecular target: T4, PKCδ-GFP fusion protein (Homo sapiens, UniProt Q05655); test: PKC translocation assay, PKCδ; type: cell-based, Rat; settings: RBL cells, 200 nM, confocal microscopy
T4 construct: The DNA encoding C-terminal GFP-tagged full-length PKCδ was electroporated into the cells; expressed in transfected cells; host or cells: Rat basophilic leukemia 2H3 (RBL) cells
Procedure: as §1, §2, §3, §4

[4] = molecular target: PKC purified from rat brain; test: Protein kinase C (isozyme mix) assay; type: binding; settings: 37° C., 90 min, read-out: Kd of [H^3]-PDBu
Procedure: In one approach, anticancer activity of compounds of the invention can be assessed using the protein kinase C assay detailed in Example 5. In this assay, Ki values are determined for analogues based on competition with radiolabeled phorbol 12,13-dibutyrate for binding to a mixture of PKC isoenzymes. PKC enzymes are implicated in a variety of cellular responses which may be involved in the activity of the bryostatins.
The following procedure was used, based on a modification of a previous procedure described by Tanaka et al. (1986). Filters (Whatman GF-B, 21 mm diam.) are soaked for 1 h in a solution containing deionized water (97 mL), and 10% polyethyleneamine (3 mL). A filtering buffer solution containing TRIS (1M, pH 7.4, 10 mL) and water (490 mL) is prepared and cooled on ice. […] Non-specific binding is measured in 1-3 tubes by the substitution of phorbol myristate acetate (PMA) (1 mM, 5 μL) and EtOH (15 μL) for the analogue/EtOH combination. […] The filters are immediately counted in a scintillation counter (Beckman LS 6000SC). […] The data is then plotted using a least squares fit algorithm with the Macintosh version of Kaleidagraph© (Abelbeck Software) and an IC50 (defined as the concentration of analogue required to displace half of the specific PDBU binding to PKC) is calculated. […]

T3 sequence (P05771 whole entry, the tested form may be a part): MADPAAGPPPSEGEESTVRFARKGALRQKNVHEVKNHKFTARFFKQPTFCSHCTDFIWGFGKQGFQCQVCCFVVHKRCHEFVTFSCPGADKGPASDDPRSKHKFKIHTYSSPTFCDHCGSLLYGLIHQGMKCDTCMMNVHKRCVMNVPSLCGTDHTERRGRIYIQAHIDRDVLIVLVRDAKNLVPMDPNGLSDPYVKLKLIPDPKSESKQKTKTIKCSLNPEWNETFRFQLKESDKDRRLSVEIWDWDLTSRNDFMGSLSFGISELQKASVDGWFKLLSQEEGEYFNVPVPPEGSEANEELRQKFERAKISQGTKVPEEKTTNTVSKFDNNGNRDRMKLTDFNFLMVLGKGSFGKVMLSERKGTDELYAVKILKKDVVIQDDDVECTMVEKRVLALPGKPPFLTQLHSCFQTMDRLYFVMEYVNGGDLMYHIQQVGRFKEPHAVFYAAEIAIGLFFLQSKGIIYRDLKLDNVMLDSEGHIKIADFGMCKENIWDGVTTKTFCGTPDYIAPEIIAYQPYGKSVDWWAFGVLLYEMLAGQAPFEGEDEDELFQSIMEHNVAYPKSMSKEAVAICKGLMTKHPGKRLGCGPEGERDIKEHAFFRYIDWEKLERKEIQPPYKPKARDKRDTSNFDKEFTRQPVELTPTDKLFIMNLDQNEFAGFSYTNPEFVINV
T1 sequence (P28867 231-281 limits assumed): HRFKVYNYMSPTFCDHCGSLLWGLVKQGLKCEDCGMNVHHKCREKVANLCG
T4 sequence (Q05655 whole entry, the tested form may be a part): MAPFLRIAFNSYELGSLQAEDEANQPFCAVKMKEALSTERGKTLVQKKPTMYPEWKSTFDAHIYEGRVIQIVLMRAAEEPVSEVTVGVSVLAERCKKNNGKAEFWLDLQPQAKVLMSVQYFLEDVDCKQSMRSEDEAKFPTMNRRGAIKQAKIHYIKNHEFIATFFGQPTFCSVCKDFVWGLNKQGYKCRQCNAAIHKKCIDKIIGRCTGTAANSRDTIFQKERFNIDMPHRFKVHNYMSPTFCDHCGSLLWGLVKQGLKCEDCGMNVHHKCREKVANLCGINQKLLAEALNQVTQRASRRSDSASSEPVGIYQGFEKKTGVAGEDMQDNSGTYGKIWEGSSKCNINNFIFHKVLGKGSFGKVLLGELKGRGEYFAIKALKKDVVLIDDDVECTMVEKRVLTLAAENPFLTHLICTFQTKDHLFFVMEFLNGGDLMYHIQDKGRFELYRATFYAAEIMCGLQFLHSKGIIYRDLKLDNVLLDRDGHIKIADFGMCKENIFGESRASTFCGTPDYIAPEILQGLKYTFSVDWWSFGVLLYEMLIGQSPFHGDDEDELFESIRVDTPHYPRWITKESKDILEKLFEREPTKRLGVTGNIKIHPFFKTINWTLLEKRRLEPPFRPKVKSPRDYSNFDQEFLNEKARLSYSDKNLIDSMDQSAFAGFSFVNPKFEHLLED
T2 sequence (Q02156 whole entry, the tested form may be a part): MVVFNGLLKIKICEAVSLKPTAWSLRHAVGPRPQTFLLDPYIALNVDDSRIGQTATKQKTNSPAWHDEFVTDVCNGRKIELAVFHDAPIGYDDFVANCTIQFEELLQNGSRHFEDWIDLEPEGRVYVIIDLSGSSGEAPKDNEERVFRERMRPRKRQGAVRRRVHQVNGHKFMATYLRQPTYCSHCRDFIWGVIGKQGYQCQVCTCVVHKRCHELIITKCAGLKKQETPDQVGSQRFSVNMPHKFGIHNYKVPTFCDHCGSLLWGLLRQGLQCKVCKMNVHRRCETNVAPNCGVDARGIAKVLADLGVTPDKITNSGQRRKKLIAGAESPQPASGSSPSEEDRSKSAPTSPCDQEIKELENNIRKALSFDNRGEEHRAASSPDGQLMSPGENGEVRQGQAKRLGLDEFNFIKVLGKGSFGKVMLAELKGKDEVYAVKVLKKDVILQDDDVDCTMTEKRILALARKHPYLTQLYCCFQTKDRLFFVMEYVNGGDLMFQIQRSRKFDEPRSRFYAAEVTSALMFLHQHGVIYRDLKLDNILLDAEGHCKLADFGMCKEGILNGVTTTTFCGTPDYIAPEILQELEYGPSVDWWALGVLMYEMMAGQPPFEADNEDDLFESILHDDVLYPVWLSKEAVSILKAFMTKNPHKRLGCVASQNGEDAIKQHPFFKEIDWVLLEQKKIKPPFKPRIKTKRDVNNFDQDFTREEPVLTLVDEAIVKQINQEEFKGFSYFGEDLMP

C=CCC1C[C@H]2CCOCC[C@@H](O)CC(=O)O[C@@H](CO)C[C@@H]3C/C(=C\C(=O)OC)[C@H](OC(=O)CCCCCCC)[C@@](O)(O3)C(C)(C)/C=C/[C@@H](O1)O2 (stereo partly shown) [Formula 20A]
Ki [1]: 2.6 nM

CCCC(=O)O[C@@H]1[C@@H](C)[C@@]2(O)[C@@H](C=C(CO)C[C@]3(O)C(=O)C(C)=C[C@@H]23)[C@@H]2C(C)(C)[C@]12OC(=O)CCC [Phorbol dibutyrate, phorbol 12,13-dibutyrate, reference compound]
Kd (PKCδ-C1B; Kd value): 1.7 nM

COC(=O)/C=C1\C[C@H]2C[C@H]([C@@H](C)O)OC(=O)C[C@H](O)C[C@@H]3CCC[C@H](C[C@@H]4CCO[C@H](/C=C/C(C)(C)[C@](O)(O2)[C@H]1OC(C)=O)O4)O3 [Formula 702.2]
EC50 (P388 cell line; 5 days incubation, MTT): 181 nM

CCCCCCCC(=O)OC1C(=CC(=O)OC)CC2CC(CO)OC(=O)CC(O)CC3CCCC(CC4COC(C=CC(C)(C)C1(O)O2)O4)O3 (stereo not shown) [Formula 18B.1]
Ki [1]: 5.4 nM | translocation of PKCε from the cytosol to cellular membranes [2]: rapid and complete | ability to translocate PKCβI relative to bryostatin 1 [3]: significantly reduced ability to translocate | translocation of PKCβI from the cytosol to cellular membranes ([3]; RBL cells, 200 nM, confocal microscopy): reduced | translocation of PKCδ from the cytosol to cellular membranes (PKCδ-GFP fusion protein): rapid and complete

CCCC(=O)O[C@@H]1[C@@H](C)[C@@]2(O)[C@@H](C=C(CO)C[C@]3(O)C(=O)C(C)=C[C@@H]23)[C@@H]2C(C)(C)[C@]12OC(=O)CCC [[3H]—PDBu, tritiated phorbol 12,13-dibutyrate, reference compound]
Kd ([1]; read-out: PKC Binding constant (Kd of [3H]-PDBu)): 1.17 nM | Kd [4]: 1.55 nM

CCCCCCC(=O)O[C@H]1/C(=C/C(=O)OC)C[C@H]2C[C@H]([C@@H](C)O)OC(=O)C[C@H](O)C[C@@H]3CCC[C@H](C[C@@H]4CCO[C@H](/C=C/C(C)(C)[C@]1(O)O2)O4)O3 [Formula 702.3]
Ki (PKCδ-C1B): 35 nM | EC50 (P388 cell line): 38 nM

C=CCC1C[C@H]2C[C@H]3CCC[C@@H](C[C@@H](O)CC(=O)O[C@@H](CO)C[C@@H]4C/C(=C\C(=O)OC)[C@H](OC(=O)CCCCCCC)[C@@](O)(O4)C(C)(C)/C=C/[C@@H](O1)O2)O3 (stereo partly shown) [Formula 22A]
Ki [1]: 0.67 nM
